# Experimental data reported in ChEMBL document CHEMBL1201862, “PubChem BioAssay data set” (2004).
# The source made the active and inactive calls.
# Key:
# [1] = inhibitors of intracellular T. cruzi replication, confirmation, NIH3T3 host cells, beta-gal luminescence (AID 2044); format: functional, cell-based;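 note: intracellular parasites grown in NIH/3T3 mouse fibroblasts as host cells; luminescent beta-galactosidase reporter signal from transgenic T. cruzi replicating inside host cells; inhibitors lower the luminescence signal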
# [2] = cytotoxicity toward NIH3T3 fibroblasts, dose response, counter-screen, cell-based, ATP luminescence, mouse fibroblasts (AID 2010); format: functional;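 note: cells exposed to compound for about 90 hours before reading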
# Cytochrome P450 3A4 = Cytochrome P450 3A4 (Homo sapiens, UniProt P08684);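 note: CYP3A4 tested as one member of a cytochrome P450 panel screen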
# [3] = inhibitors of SNCA 5'UTR-driven reporter translation, confirmation, H4 neuroglioma cells, luminescence (AID 1988); format: functional, cell-based
# [4] = Luminescence Cell-Based Dose Response HTS to Identify Inhibitors of 5'UTR Stem-Loop Driven Prion Protein mRNA Translation in H4 Neuroglioblastoma Cells. [Related pubchem assays: 1827 (Project Summary), 1813 (Primary HTS)]; format: functional
# Cytochrome P450 2C9 = Cytochrome P450 2C9 (Homo sapiens, UniProt P11712)
# Cytochrome P450 1A2 = molecular target: T1, Cytochrome P450 1A2 (Homo sapiens, UniProt P05177);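 note: PubChem cytochrome P450 panel assay, CYP1A2 panel member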
# T1 sequence (P05177 whole entry): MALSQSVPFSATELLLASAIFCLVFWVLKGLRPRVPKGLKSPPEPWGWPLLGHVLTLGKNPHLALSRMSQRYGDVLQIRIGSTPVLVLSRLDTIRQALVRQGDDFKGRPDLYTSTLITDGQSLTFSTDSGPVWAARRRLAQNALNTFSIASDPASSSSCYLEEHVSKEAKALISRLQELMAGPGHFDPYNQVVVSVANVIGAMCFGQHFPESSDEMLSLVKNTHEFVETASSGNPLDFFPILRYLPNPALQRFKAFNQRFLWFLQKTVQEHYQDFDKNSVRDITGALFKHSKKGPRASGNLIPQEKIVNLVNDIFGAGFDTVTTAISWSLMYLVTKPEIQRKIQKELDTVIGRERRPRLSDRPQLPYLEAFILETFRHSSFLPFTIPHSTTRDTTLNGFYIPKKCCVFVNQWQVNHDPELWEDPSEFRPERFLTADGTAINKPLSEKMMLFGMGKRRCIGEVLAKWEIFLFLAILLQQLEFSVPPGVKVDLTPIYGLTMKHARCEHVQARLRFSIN
# Streptococcus = test: Group A Streptococcus viability loss, dose response, counter-screen for streptokinase expression inhibitor project, luminescence, BacTiterGlo (AID 1915); format: functional, organism-based;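 note: potency for reduction of bacterial viability or growth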
# [5] = system: Streptococcus sp. 'group A'; test: growth inhibition of control SK(-) GAS strain, dose response, counter-screen for streptokinase expression inhibitor project, luminescence, kanamycin, BacTiterGlo, confirmation (AID 1900); format: functional, organism-based
# Cytochrome P450 2C19 = Cytochrome P450 2C19 (Homo sapiens, UniProt P33261); test: Cytochrome panel assay with activity outcomes. Panel member name: p450-cyp2c19 Compounds with AC50 equal or less than 10 uM are considered active; format: functional
# Cytochrome P450 2C19, sequence (P33261 whole entry): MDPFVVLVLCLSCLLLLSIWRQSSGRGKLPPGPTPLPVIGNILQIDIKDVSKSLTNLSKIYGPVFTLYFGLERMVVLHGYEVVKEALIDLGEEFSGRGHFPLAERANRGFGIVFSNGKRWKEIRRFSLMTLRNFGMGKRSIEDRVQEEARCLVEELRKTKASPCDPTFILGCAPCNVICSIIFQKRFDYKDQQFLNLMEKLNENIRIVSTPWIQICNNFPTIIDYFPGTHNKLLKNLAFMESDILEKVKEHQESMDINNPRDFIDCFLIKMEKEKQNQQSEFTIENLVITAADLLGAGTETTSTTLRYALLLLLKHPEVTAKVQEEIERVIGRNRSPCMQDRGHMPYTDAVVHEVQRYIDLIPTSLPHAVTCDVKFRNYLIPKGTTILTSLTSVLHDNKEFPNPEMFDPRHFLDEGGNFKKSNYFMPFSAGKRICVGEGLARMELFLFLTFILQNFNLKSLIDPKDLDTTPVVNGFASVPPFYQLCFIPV
# Cytochrome P450 3A4, sequence (P08684 whole entry): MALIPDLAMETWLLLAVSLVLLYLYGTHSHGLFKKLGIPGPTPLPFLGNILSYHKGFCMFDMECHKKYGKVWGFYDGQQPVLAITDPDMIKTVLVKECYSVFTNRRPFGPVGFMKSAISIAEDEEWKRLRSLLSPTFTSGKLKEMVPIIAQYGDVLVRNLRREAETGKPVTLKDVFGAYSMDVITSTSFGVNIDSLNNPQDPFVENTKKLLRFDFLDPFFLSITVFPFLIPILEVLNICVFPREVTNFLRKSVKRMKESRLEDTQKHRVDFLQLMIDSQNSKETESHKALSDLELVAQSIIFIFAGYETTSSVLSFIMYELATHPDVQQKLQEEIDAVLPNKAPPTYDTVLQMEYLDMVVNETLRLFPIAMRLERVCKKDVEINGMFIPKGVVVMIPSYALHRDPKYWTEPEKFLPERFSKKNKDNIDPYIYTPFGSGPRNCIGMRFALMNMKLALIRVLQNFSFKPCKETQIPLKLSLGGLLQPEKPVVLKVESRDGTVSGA
# Cytochrome P450 2C9, sequence (P11712 whole entry): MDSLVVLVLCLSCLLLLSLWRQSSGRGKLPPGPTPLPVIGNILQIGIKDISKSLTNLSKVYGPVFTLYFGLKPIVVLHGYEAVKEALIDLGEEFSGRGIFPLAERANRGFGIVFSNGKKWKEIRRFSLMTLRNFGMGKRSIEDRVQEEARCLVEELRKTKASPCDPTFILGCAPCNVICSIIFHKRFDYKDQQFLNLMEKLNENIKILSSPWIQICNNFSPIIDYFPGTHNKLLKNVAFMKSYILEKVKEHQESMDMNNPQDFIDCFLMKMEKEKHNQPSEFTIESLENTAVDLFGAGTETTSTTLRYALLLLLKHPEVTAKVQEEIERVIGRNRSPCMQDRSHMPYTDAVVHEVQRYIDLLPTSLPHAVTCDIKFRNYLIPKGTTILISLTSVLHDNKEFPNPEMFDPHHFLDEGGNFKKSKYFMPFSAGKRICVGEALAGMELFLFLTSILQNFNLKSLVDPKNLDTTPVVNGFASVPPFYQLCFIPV
structure (smiles),measurement,setting,value
CC(=O)c1ccc(N2CCN(c3ccc(S(=O)(=O)NCCN(C)C)cc3[N+](=O)[O-])CC2)cc1,EC50,[1],0.454 µM (active)
same,EC50,[2],> 16 µM (not active)
CCCn1c(=O)c2c(ncn2C)n(CCC)c1=O,AC50,Cytochrome P450 3A4,20 µM (inconclusive)
CCN(C(=O)COC(=O)c1cc(-c2ccc3cc(OC)ccc3c2)nc2ccccc12)C1CCS(=O)(=O)C1 (stereo not drawn),EC50,[3],11 µM (active)
same,EC50,[4],13.9 µM (active)
COCc1nc2c([nH]1)c(=O)n(C)c(=O)n2CC(C)C,AC50,Cytochrome P450 3A4,1.26 µM (inconclusive)
CCCS(=O)(=O)N1CCCC(C(=O)NCCN2CCC(Cc3ccccc3)CC2)C1 (stereo not drawn),AC50,Cytochrome P450 2C9,5.01 µM (inconclusive)
C/C(=N/CCN1CCN(C(=S)Nc2ccccc2)CC1)C1=C(O)CC(C)(C)CC1=O,AC50,Cytochrome P450 2C9,28.2 µM (inconclusive)
COc1ccc(N(C(=O)COc2ccccc2OC)S(=O)(=O)c2ccc(C)cc2)cc1,AC50,Cytochrome P450 1A2,4.47 µM (inconclusive)
O=C(c1cccc(C(F)(F)F)c1)C1CCCN(Cc2ccc(OCCO)cc2)C1 (stereo not drawn),EC50,[1],0.402 µM (active)
same,EC50,[2],> 30 µM (not active)
C=C[C@]1(C)C[C@@H](OC(=O)CSCCN(CC)CC)[C@]2(C)C(C)CC[C@]3(CCC(=O)[C@H]32)[C@@H](C)[C@@H]1O (stereo partly drawn),EC50,Streptococcus,0.182 µM (active)
same,EC50,[5],< 0.06 µM (active)
CCCCN1C(=O)CCC(C(=O)O)C1c1ccccc1 (stereo not drawn),AC50,Cytochrome P450 2C19,inconclusive
CCSc1nnc2n(N)c(=O)c3ccccc3n12,AC50,Cytochrome P450 3A4,15.8 µM (inconclusive)
CC(C)CCn1nnnc1C(c1ccc(F)cc1)N1CCN(C(=O)c2ccco2)CC1 (stereo not drawn),AC50,Cytochrome P450 2C9,11.2 µM (inconclusive)
COc1ccccc1CNc1ncnc2ccc(-c3cccnc3)cc12,AC50,Cytochrome P450 2C19; read-out: AC50,20 µM (inconclusive)
CN(C)CN1C(=O)S/C(=C2/C(=O)N(CN(C)C)c3ccccc32)C1=O,AC50,Cytochrome P450 1A2,0.794 µM (inconclusive)
CCN1CCN(Cc2ccc(NC(=O)c3cc(NC(=O)c4cc(-c5ccc(OC)cc5)[nH]n4)cc(OC)c3)cc2C(F)(F)F)CC1,EC50,Streptococcus,7.21 µM (active)
same,EC50,[5],4.15 µM (active)
CC(C)N(CCNC(=O)C1CCN(S(=O)(=O)N2CCOCC2)CC1)Cc1ccccc1,AC50,Cytochrome P450 2C9,20 µM (inconclusive)
same,AC50,Cytochrome P450 2C19; read-out: AC50,39.8 µM (inconclusive)
O=C(NC1CCCCC1)C1CC=CCC1C(=O)OCC(Cl)=C(Cl)Cl (stereo not drawn),AC50,Cytochrome P450 1A2,25.1 µM (inconclusive)
Cc1ccc(C)c(NC(=O)C2(C)CC3c4ccccc4C2c2ccccc23)c1 (stereo not drawn),AC50,Cytochrome P450 2C9,10 µM (inconclusive)
same,AC50,Cytochrome P450 2C19; read-out: AC50,0.00562 µM (inconclusive)
Cc1cc(C)c(C#N)c(SCC(=O)Nc2nnc(-c3ccccc3)s2)n1,EC50,[1],> 30 µM (not active)
same,EC50,[2],> 30 µM (not active)
Cc1nc2cnc(N3CCN(C)CC3)nc2n(CCc2ccccc2)c1=O,AC50,Cytochrome P450 3A4,15.8 µM (inconclusive)
N#C[C@H](Cc1ccc(O)cc1)c1ccc(O)cc1,AC50,Cytochrome P450 2C9,39.8 µM (inconclusive)
same,AC50,Cytochrome P450 2C19; read-out: AC50,2 µM (inconclusive)
COc1ccccc1CNc1cc(-c2ccccc2Cl)ncn1,AC50,Cytochrome P450 3A4,39.8 µM (inconclusive)
Cc1cc(C(=O)N2CCCC(N3CCN(c4ccccc4C)CC3)C2)n(C)n1 (stereo not drawn),EC50,[1],> 30 µM (not active)
same,EC50,[2],> 30 µM (not active)
Cc1nc2cnc(N3CCNCC3)nc2n(C)c1=O,AC50,Cytochrome P450 2C19,inconclusive
same,AC50,Cytochrome P450 3A4,15.8 µM (inconclusive)
Fc1cccc(C[n+]2csc3ccccc32)c1,EC50,[1],1.99 µM (active)
same,EC50,[2],> 60 µM (not active)
O=S(=O)(c1ccc2ccccc2c1)N1CCC(c2nc(-c3ccncc3)no2)CC1,EC50,[1],0.564 µM (active)
same,EC50,[2],> 60 µM (not active)
N#CCCn1c(=O)c(-c2ccccc2)nc2cnc(N3CCOCC3)nc21,AC50,Cytochrome P450 1A2,10 µM (inconclusive)
COC(=O)[C@@]1(Cc2ccc(F)cc2)[C@H]2c3cc(C(=O)N4CCCC4)n(CCF)c3C[C@H]2CN1C(=O)c1ccccc1,AC50,Cytochrome P450 1A2,15.8 µM (inconclusive)
CCCCC(=O)Nc1nnc(SCC(=O)NC2CCCC2)s1,AC50,Cytochrome P450 2C19; read-out: AC50,35.5 µM (inconclusive)
CC(C)(C)c1cc(Br)c(O)c(CN(Cc2cc(C(C)(C)C)cc(Br)c2O)C2CCCCC2)c1,AC50,Cytochrome P450 2C9,3.16 µM (inconclusive)
same,AC50,Cytochrome P450 1A2,5.01 µM (inconclusive)
CC(C)(Oc1ccc(-c2cccc3ccccc23)cc1)C(=O)O,AC50,Cytochrome P450 2C9,0.398 µM (inconclusive)
same,AC50,Cytochrome P450 2C19,inconclusive
C=CCNC(=O)c1ccc(-c2nc(-c3ccc(Cl)c(Cl)c3)cs2)cc1,AC50,Cytochrome P450 2C19; read-out: AC50,28.2 µM (inconclusive)
same,AC50,Cytochrome P450 3A4,7.94 µM (inconclusive)
Cn1cccc1C(=O)N1CCC2(CCN(Cc3ccncc3)CC2)CC1,AC50,Cytochrome P450 2C19; read-out: AC50,15.8 µM (inconclusive)
same,AC50,Cytochrome P450 3A4,12.6 µM (inconclusive)
same,AC50,Cytochrome P450 1A2,15.8 µM (inconclusive)
Cc1ccc2c(c1)C1CN(C)CCC1N2C(=S)NC(=O)c1ccc(Br)cc1 (stereo not drawn),EC50,[1],0.828 µM (active)
same,EC50,[2],41.5 µM (active)
COc1cccc(/N=c2\oc3c(C)ncc(CO)c3cc2C(N)=O)c1,AC50,Cytochrome P450 2C9,11.2 µM (inconclusive)
same,AC50,Cytochrome P450 2C19,inconclusive
Cc1ccc(S(=O)(=O)N[C@H](CN)C(=O)O)cc1,AC50,Cytochrome P450 2C19,inconclusive
CC(C)(C)c1ccccc1OCC(=O)Nc1ccccc1C(=O)NCc1cccnc1,EC50,[1],3.61 µM (active)
same,EC50,[2],> 60 µM (not active)
O=C(O)C1CCN(c2ncnc3ccc(-c4ccccc4C(F)(F)F)cc23)CC1,AC50,Cytochrome P450 3A4,39.8 µM (inconclusive)
COc1cccc(CNCCNC(=O)c2nonc2N)c1,AC50,Cytochrome P450 1A2,39.8 µM (inconclusive)
COc1nnc(OC)c2ccccc12,AC50,Cytochrome P450 2C19; read-out: AC50,0.0631 µM (inconclusive)
NC(=S)SCCC(=O)O,AC50,Cytochrome P450 1A2,1.58 µM (inconclusive)
CCN1CCN(c2ccc(S(=O)(=O)N3CCCCC3)cc2NC(=O)c2ccc(C)o2)CC1,EC50,[1],2.01 µM (active)
same,EC50,[2],> 60 µM (not active)
CCOc1c2ccc(C(=O)NCCCCc3ccccc3)cc2nn1CC,AC50,Cytochrome P450 2C19; read-out: AC50,8.91 µM (inconclusive)
same,AC50,Cytochrome P450 1A2,6.31 µM (inconclusive)
CC(C)Oc1ccc(CSC(=N)N)cc1,AC50,Cytochrome P450 2C19; read-out: AC50,5.62 µM (inconclusive)
same,AC50,Cytochrome P450 1A2,22.4 µM (inconclusive)
COc1ccccc1-c1cc2nc(C)c(CCC(=O)NCc3ccc(F)cc3)c(C)n2n1,EC50,[1],2.06 µM (active)
same,EC50,[2],> 60 µM (not active)
Cc1cc(N2CCN(c3ccccc3)CC2)nc(NCc2ccccc2)n1,EC50,[1],0.809 µM (active)
same,EC50,[2],> 30 µM (not active)
C=CCNC(=O)c1onc(CSc2ccc(F)cc2)c1C(=O)O,AC50,Cytochrome P450 3A4,22.4 µM (inconclusive)
CNc1cc(-c2ccccc2CN(C)C)ncn1,AC50,Cytochrome P450 1A2,31.6 µM (inconclusive)
COc1ccc(C(=O)Nc2cc(OC)cc(OC)c2)cc1,AC50,Cytochrome P450 2C9,22.4 µM (inconclusive)
Cc1nc2cnc(N3CCNCC3)nc2n(Cc2ccc(F)cc2)c1=O,AC50,Cytochrome P450 2C9,25.1 µM (inconclusive)
same,AC50,Cytochrome P450 2C19,inconclusive
Cc1c(S(=O)(=O)O)ccc(/N=N\c2c(O)c(C(=O)O)cc3ccccc23)c1Cl,AC50,Cytochrome P450 1A2,5.01 µM (inconclusive)
CC(=O)OC[C@@H]1O[C@H](C/C=N\OCC[C@H]2C=C[C@H](OC(C)=O)[C@@H](COC(C)=O)O2)C=C[C@@H]1OC(C)=O,AC50,Cytochrome P450 2C19,inconclusive
same,AC50,Cytochrome P450 3A4,3.16 µM (inconclusive)
O=C(NCc1cccnc1)c1ccc(-c2cc(Cl)ccc2Cl)o1,EC50,[1],1.72 µM (active)
same,EC50,[2],> 30 µM (not active)
COc1ccc(/C=N/NC(=O)CCCC(=O)NC2CCCCC2)cc1,AC50,Cytochrome P450 2C9,10 µM (inconclusive)
same,AC50,Cytochrome P450 2C19; read-out: AC50,14.1 µM (inconclusive)
COc1ccc(Oc2ncc3nc(C)c(=O)n(CCC#N)c3n2)cc1,AC50,Cytochrome P450 1A2,25.1 µM (inconclusive)
CCN(c1ccccc1)S(=O)(=O)c1cc(C(=O)Nc2ccc(Br)cc2)ccc1F,EC50,[1],2.66 µM (active)
same,EC50,[2],> 60 µM (not active)
O=c1cnc2cnc(N3CCNCC3)nc2n1Cc1ccc(F)cc1,AC50,Cytochrome P450 2C9,20 µM (inconclusive)
